In data set [1] the test system is DG-75. As to the kind of experiment: Cytotoxicity against human DG75 cells after 48 hrs by MTT assay. It is filed as functional, cell-based. Particulars: for IC50: DG-75, 48 h. (In general: Formazan colour is commonly taken as a measure of viable cells.)
The next data set concerns Aspergillus niger. As to the kind of experiment: Antifungal activity against Aspergillus niger ATCC 16404 after 24 to 72 hrs at 28 degC by broth dilution susceptibility test. It is filed as functional. (Broth dilution looks for growth in wells or tubes with falling amounts of substance.)
The next data set deals with Escherichia coli. Description: Antibacterial activity against Escherichia coli ATCC 10536 after 24 to 72 hrs at 37 degC by broth dilution susceptibility test. It is filed as functional.
In data set [2] the test system is HeLa. As to the kind of experiment: Cytotoxicity against human HeLa cells after 48 hrs by MTT assay. It is filed as functional, cell-based.
The subject of another data set is Pseudomonas aeruginosa. Description: Antibacterial activity against Pseudomonas aeruginosa ATCC 15442 after 24 to 72 hrs at 30 degC by broth dilution susceptibility test. In kind it is functional.
Data set [3] is described as follows: Antioxidant activity assessed as ferric ion reducing activity by FRAP assay. It is filed as functional.
A further data set concerns Bacillus subtilis. As to the kind of experiment: Antibacterial activity against Bacillus subtilis ATCC 6633 after 24 to 72 hrs at 30 degC by broth dilution susceptibility test. In kind it is functional.
The test system of a further data set is Salmonella enterica. Description: Antibacterial activity against Salmonella enterica CIP 80.39 after 24 to 72 hrs at 37 degC by broth dilution susceptibility test. In kind it is functional.
A short description of data set [4]: Antioxidant activity assessed as trolox equivalent of ABTS radical scavenging activity. It is filed as functional.
Data set [5] deals with Radical scavenging activity. Description: Antioxidant activity assessed as DPPH radical scavenging activity after 30 mins. In kind it is functional. On the technique in general: Loss of DPPH colour is used to gauge radical scavenging.
Another data set concerns Candida albicans. Description: Antifungal activity against Candida albicans ATCC 10231 after 24 to 72 hrs at 28 degC by broth dilution susceptibility test. It is filed as functional.
A further data set has as its system PBL. Description: Cytotoxicity against human PBL after 48 hrs by MTT assay. It is filed as cell-based.
Data set [6] deals with DG-75. Description: Antioxidant activity against ferrous ion-induced oxidative stress in human DG75 cells assessed as decrease in malondialdehyde formation at 20 ug/mL pretreated for 4 hrs before Fe2+ challenge by TBARS assay. It is filed as functional, cell-based.
Data set [7] concerns HeLa. Description: Antioxidant activity against ferrous ion-induced oxidative stress in human HeLa cells assessed as decrease in malondialdehyde formation at 10 ug/mL pretreated for 4 hrs before Fe2+ challenge by TBARS assay. It is filed as functional, cell-based.
In data set [8] the test system is DG-75. Description: Antioxidant activity against ferrous ion-induced oxidative stress in human DG75 cells assessed as decrease in malondialdehyde formation at 10 ug/mL pretreated for 4 hrs before Fe2+ challenge by TBARS assay. In kind it is functional, cell-based.
Data set [9] has as its system HeLa. Description: Antioxidant activity against ferrous ion-induced oxidative stress in human HeLa cells assessed as decrease in malondialdehyde formation at 20 ug/mL pretreated for 4 hrs before Fe2+ challenge by TBARS assay. It is filed as functional, cell-based.
The next data set has as its system Staphylococcus aureus. Description: Antibacterial activity against Staphylococcus aureus ATCC 9144 after 24 to 72 hrs at 37 degC by broth dilution susceptibility test. It is filed as functional.

Here are results for three compounds from ChEMBL document CHEMBL1152241, “Synthesis and recovery of high bioactive phenolics from table-olive brine process wastewater” (Bioorg Med Chem, 2008).

Values after ≈ are worked out from the molar mass of the structure shown. Active and inactive are the calls of the source. No cut-off for these calls is given here.

For orientation: IC50 means the concentration at which inhibition is half-maximal. By MIC is commonly meant the least concentration at which growth counts as inhibited. A low value points to greater potency. For `CC(=O)OCCc1ccc(OC(C)=O)c(OC(C)=O)c1`, the values for the Activity entry in the data set on DG-75 [1], with HeLa [2] and in the data set on PBL were “Dose-dependent effect”, “Dose-dependent effect” and “Not Active”, respectively. In addition, the results for the IC50 with DG-75 [1] and in the data set with HeLa [2] were 27 µg/mL (≈ 96.3 µM) and 92 µg/mL (≈ 328 µM), respectively. Besides, the MIC against Aspergillus niger came to 500 µg/mL (≈ 1780 µM); in the data set with Escherichia coli, 250 µg/mL (≈ 892 µM); in the data set on Pseudomonas aeruginosa, 250 µg/mL (≈ 892 µM); in the data set with Bacillus subtilis it was 125 µg/mL (≈ 446 µM); with Salmonella enterica, 250 µg/mL (≈ 892 µM); in the data set with Candida albicans, 500 µg/mL (≈ 1780 µM). Moreover, the result in [3], in data set [4] and in [5] was inactive.
In the case of `OCCc1ccc(O)c(O)c1` [HYDROXYTYROSOL], the Activity entry in the data set with DG-75 [1] is “Dose-dependent effect”; with HeLa [2] it was “Dose-dependent effect”; in data set [4], 3.4 mmol; with PBL it was “Not Active”. The IC50 worked out at 58 µg/mL (≈ 376 µM) in the data set with DG-75 [1], 70 µg/mL (≈ 454 µM) in the data set on HeLa [2] and 3.71 µg/mL (≈ 24.1 µM) in data set [5]. Further, the MIC is 250 µg/mL (≈ 1620 µM) in the data set on Aspergillus niger; 125 µg/mL (≈ 811 µM) with Escherichia coli; 125 µg/mL (≈ 811 µM) against Pseudomonas aeruginosa; 62.5 µg/mL (≈ 405 µM) in the data set with Bacillus subtilis; 125 µg/mL (≈ 811 µM) against Salmonella enterica; 125 µg/mL (≈ 811 µM) in the data set on Candida albicans. Also, 62.5 µg/mL (≈ 405 µM) was the least that counted as inhibitory in the data set on Staphylococcus aureus (MIC). The outcome (in [3]; in the data set with DG-75 [6]; in the data set with HeLa [7]; with DG-75 [8]; with HeLa [9]) was Active.
With `Cc1cc(C(C)(C)C)c(O)c(C(C)(C)C)c1` [BUTYLATED HYDROXYTOLUENE], the Activity in [4] was found to be 2.37 mmol. Further, the IC50 in data set [5] amounted to 7.94 µg/mL (≈ 36 µM).
